For this test, the target named is Factor D (Homo sapiens, UniProt P00746). Nature of the test: Factor D esterolytic assay. It is filed as biochemical. Conditions: substrate Z-Lys-SBzl 1.29 mM, 100 mM HEPES, 500 mM NaCl, pH 7.5, 10% DMSO, tested a minimum of three times. The method, then: The IC50 value of a compound (i.e., the concentration of the compound that inhibits 50% of the enzymatic activity) was calculated according to the procedure reported in U.S. Pat. No. 6,653,340 B1, e.g., column 74 (incorporated by reference).
Factor D, sequence (P00746 26-253): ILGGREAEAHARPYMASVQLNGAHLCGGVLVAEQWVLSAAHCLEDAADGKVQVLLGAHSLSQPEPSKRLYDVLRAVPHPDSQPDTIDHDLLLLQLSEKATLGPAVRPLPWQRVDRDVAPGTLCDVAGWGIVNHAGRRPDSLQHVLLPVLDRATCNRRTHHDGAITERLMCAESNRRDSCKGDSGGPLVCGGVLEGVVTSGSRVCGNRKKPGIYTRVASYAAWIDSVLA
Specifically, the compounds were dissolved in a stock solution of DMSO at 10.0 or 100 mM. A portion of this stock solution was added to assay buffer in a final volume of 50 μL. Controls included buffer alone and enzyme solutions to which DMSO was added. Substrate was added to the reaction wells immediately or after incubation at room temperature. The reaction rates were measured spectrophotometrically by the generation of product at 405 nm for 600 sec. Background absorbance at 690 nm was measured and subtracted from the absorbance at 405 nm for each well.
The reaction rate for enzyme alone was compared to the rate of enzyme in the presence of inhibitor and the percent inhibition was calculated as shown below: […]
An established esterolytic assay for the measurement of Factor D activity and inhibition of Factor D activity was used (Kam, C. M.; McRae, B. J.; Harper, J. W.; Niemann, M. A.; Volanakis, J. E.; Powers, J. C. Human complement proteins D, C2, and B Active site mapping with peptide thioester substrates. J Biol. Chem. 1987, 262, 3444-3451). For this assay Z-Lys-SBzl, 1.29 mM (Kim, S.; Narayana, S. V. L; Volanakis, J. E. Mutational analysis of the substrate binding site of human complement Factor D. Biochemistry. 1994, 33, 14393-14399.) was used as the substrate for Factor D ([…]). Hydrolysis of this compound by Factor D liberated a free sulfhydryl group which is then reacted with 5,5′-dithiobis(2nitrobenzoic acid) producing an intense yellow color (Habeeb, A. F. S. A. Reaction of protein sulfhydryl groups with Ellman's Reagent. Methods in Enzymol. 1976, 25, 457-464). The assays were performed in 96 well microtiter plates and rates of hydrolysis were monitored at 405 nm on a Biotek Synergy H1 plate reader. Hydrolysis rates were reported as change in mOD/min. The assay was conducted in 100 mM HEPES, 500 mM NaCl, pH 7.5 containing 10% DMSO in a final volume of 50 μL per well.
An IC50, a compound concentration which inhibits 50% of the enzymatic activity, was calculated. Compounds in the examples were tested a minimum of three times.
Usually IC50 stands for the concentration that inhibits the measured activity by half. For the compound `CC(Oc1ccccc1CC(=O)O)c1cc(-c2cccc(CN)c2)c2occc2c1` (single isomer, unassigned; (+)) [Compound 77f, (+)-2-(2-(1-(7-(3-(aminomethyl)phenyl)benzofuran-5-yl)ethoxy)phenyl)acetic acid], the IC50 was under 1 µM.
Turning to `CC(=O)c1ccc(CC(=O)O)c(OCc2cc(-c3ccnc(CN)c3F)c3occ(C(F)(F)F)c3c2)c1` [Compound 13f, 2-(4-acetyl-2-((7-(2-(aminomethyl)-3-fluoropyridin-4-yl)-3-(trifluoromethyl)benzofuran-5-yl)methoxy)phenyl)acetic acid], the IC50 was under 1 µM.
The result for `CCOC(=O)NC(C)c1ccc(CC(=O)O)c(OCc2cc(-c3cccc(CN)c3)c3occc3c2)c1` (single isomer, unassigned; (-)) [Compound 55e, (−)-2-(2-((7-(3-(aminomethyl)phenyl)benzofuran-5-yl)methoxy)-4-(1-((ethoxycarbonyl)amino)ethyl)phenyl)acetic acid] reads under 1 µM; that for `CCOP(=O)(NCc1ccc(CC(=O)O)c(OCc2cc(-c3cccc(CN)c3)c3occc3c2)c1)OCC` [Compound 32c, 2-(2-((7-(3-(aminomethyl)phenyl)benzofuran-5-yl)methoxy)-4-((diethoxyphosphorylamino)methyl)phenyl)acetic acid], under 1 µM.
In the case of `NCc1nccc(-c2cc(COc3ccccc3CC(=O)O)cc3c(F)coc23)c1F` [Compound 46d, 2-(2-((7-(2-(aminomethyl)-3-fluoropyridin-4-yl)-3-fluorobenzofuran-5-yl)methoxy)phenyl)acetic acid], the IC50 is under 1 µM.
As for `Cc1ccc(CC(=O)O)c(OCc2cc(-c3cccc(CN)c3)c3occ(F)c3c2)c1` [Compound 49d, 2-(2-((7-(3-(aminomethyl)phenyl)-3-fluorobenzofuran-5-yl)methoxy)-4-methylphenyl)acetic acid], the figure is under 1 µM; as for `CC(N)c1nc(-c2cc(COc3ccccc3CC(=O)O)cc3ccoc23)cs1` (stereo not shown) [Compound 7e, 2-(2-((7-(2-(1-aminoethyl)thiazol-4-yl)benzofuran-5-yl)methoxy)phenyl)acetic acid], 1 to 10 µM.
As for `CC(N)c1ccc(CC(=O)O)c(OCc2cc(-c3cccc(CN)c3)c3occc3c2)c1` (single isomer, unassigned; (+)) [Compound 60a, (+)-2-(4-(1-aminoethyl)-2-((7-(3-(aminomethyl)phenyl)benzofuran-5-yl)methoxy)phenyl)acetic acid], the figure is under 1 µM; as for `CCC(N)c1cc(-c2cc(COc3ccccc3CC(=O)O)cc3ccoc23)cs1` (stereo not shown) [Compound 1j, 2-(2-((7-(5-(1-aminopropyl)thiophen-3-yl)benzofuran-5-yl)methoxy)phenyl)acetic acid], 1 to 10 µM.
As for `NCc1cccc(-c2cc(COc3ccccc3CC(=O)O)cc3c(F)coc23)c1` [Compound 44d, 2-(2-((7-(3-(aminomethyl)phenyl)-3-fluorobenzofuran-5-yl)methoxy)phenyl)acetic acid], the figure is under 1 µM; as for `NCc1nccc(-c2cc(COc3ccc(F)cc3CC(=O)O)cc3c(C(F)(F)F)coc23)c1F` [Compound 11m, 2-(2-((7-(2-(aminomethyl)-3-fluoropyridin-4-yl)-3-(trifluoromethyl)benzofuran-5-yl)methoxy)-5-fluorophenyl)acetic acid], under 1 µM.
Regarding `CC(C)C(N)C(=O)OCc1cc2cc(COc3ccccc3CC(=O)O)cc(-c3cccc(CN)c3)c2o1` (stereo not shown) [Compound 24b, 2-(2-((2-(((2-amino-3-methylbutanoyl)oxy)methyl)-7-(3-(aminomethyl)phenyl)benzofuran-5-yl)methoxy)phenyl)acetic acid], the IC50 was under 1 µM.
Turning to `CCOC(=O)NCc1cc2cc(COc3ccccc3CC(=O)O)cc(-c3cccc(CN)c3)c2o1` [Compound 25h, 2-(2-((7-(3-(aminomethyl)phenyl)-2-(((ethoxycarbonyl)amino)methyl)benzofuran-5-yl)methoxy)phenyl)acetic acid], the IC50 is under 1 µM.
As for `CCOC(=O)NC(C)c1ccc(CC(=O)O)c(OCc2cc(-c3cccc(CN)c3)c3occc3c2)c1` (single isomer, unassigned; (+)) [Compound 54g, (+)-2-(2-((7-(3-(aminomethyl)phenyl)benzofuran-5-yl)methoxy)-4-(1-(ethoxycarbonylamino)ethyl)phenyl)acetic acid], the figure is under 1 µM.
Consider `NCc1cc(-c2cc(COc3ccccc3CC(=O)O)cc3ccoc23)co1` [Compound 50e, 2-(2-((7-(5-(aminomethyl)furan-3-yl)benzofuran-5-yl)methoxy)phenyl)acetic acid], for which the IC50 is over 10 µM.
Consider `NCc1cccc(-c2cc(COc3ccccc3C(NC(=O)C3CC3)C(=O)O)cc3ccoc23)c1` (single isomer, unassigned; (-)) [Compound 51f, (−)-2-(2-((7-(3-(aminomethyl)phenyl)benzofuran-5-yl)methoxy)phenyl)-2-(cyclopropanecarboxamido)acetic acid], for which the 50% inhibitory concentration (IC50) was under 1 µM.
The result for `NCc1cccc(-c2cc(COc3ccccc3CC(=O)O)c(C3CC3)c3ccoc23)c1` [Compound 68g, 2-(2-((7-(3-(aminomethyl)phenyl)-4-cyclopropylbenzofuran-5-yl)methoxy)phenyl)acetic acid] reads under 1 µM.
The result for `CCOC(=O)NCc1ccc(CC(=O)O)c(OCc2cc(-c3cccc(CN)c3)c3occc3c2)c1` [Compound 29c, 2-(2-((7-(3-(aminomethyl)phenyl)benzofuran-5-yl)methoxy)-4-((ethoxycarbonylamino)methyl)phenyl)acetic acid] reads under 1 µM; that for `NCc1nccc(-c2cc(COc3cc(C(F)(F)F)ccc3CC(=O)O)cc3ccoc23)c1F` [Compound 56f, 2-(2-((7-(2-(aminomethyl)-3-fluoropyridin-4-yl)benzofuran-5-yl)methoxy)-4-(trifluoromethyl)phenyl)acetic acid], under 1 µM; that for `CC(C)C(N)c1cccc(-c2cc(COc3ccccc3CC(=O)O)cc3ccoc23)c1` (stereo not shown) [Compound 3c, 2-(2-((7-(3-(1-amino-2-methylpropyl)phenyl)benzofuran-5-yl)methoxy)phenyl)acetic acid], 1 to 10 µM.
For the compound `NC(=O)c1cc(-c2cc(COc3ccccc3CC(=O)O)cc3ccoc23)cs1` [Compound 84c, 2-(2-((7-(5-carbamoylthiophen-3-yl)benzofuran-5-yl)methoxy)phenyl)acetic acid], the IC50 is over 10 µM.
The result for `NCc1ccn(-c2cc(COc3ccccc3CC(=O)O)cc3ccoc23)c1` [Compound 63f, 2-(2-((7-(3-(aminomethyl)-1H-pyrrol-1-yl)benzofuran-5-yl)methoxy)phenyl)acetic acid] reads 1 to 10 µM; that for `CC(C)Oc1c(COc2ccccc2CC(=O)O)cc(-c2cccc(CN)c2)c2occc12` [Compound 66f, 2-(2-((7-(3-(aminomethyl)phenyl)-4-isopropoxybenzofuran-5-yl)methoxy)phenyl)acetic acid], under 1 µM.
The result for `CC(Oc1ccccc1CC(=O)O)c1cc(-c2cccc(CN)c2)c2occc2c1` (single isomer, unassigned; (-)) [Compound 77g, (−)-2-(2-(1-(7-(3-(aminomethyl)phenyl)benzofuran-5-yl)ethoxy)phenyl)acetic acid] reads under 1 µM; that for `NCc1cccc(-c2cc(COc3ccccc3CC(=O)O)c(OCC(=O)O)c3ccoc23)c1` [Compound 65g, lithium 2-((7-(3-(aminomethyl)phenyl)-5-((2-(carboxymethyl)phenoxy)methyl)benzofuran-4-yl)oxy)acetate], under 1 µM; that for `NCc1nccc(-c2cc(COc3ccc(F)cc3CC(=O)O)cc3cc(F)oc23)c1F` [Compound 17d, 2-(2-((7-(2-(aminomethyl)-3-fluoropyridin-4-yl)-2-fluorobenzofuran-5-yl)methoxy)-5-fluorophenyl)acetic acid], under 1 µM.
On to `CS(=O)(=O)NCc1ccc(CC(=O)O)c(OCc2cc(-c3cccc(CN)c3)c3occc3c2)c1` [Compound 33c, 2-(2-((7-(3-(aminomethyl)phenyl)benzofuran-5-yl)methoxy)-4-(methylsulfonamidomethyl)phenyl)acetic acid], for which the IC50 is under 1 µM.
For the compound `NCc1ccc(-c2nc(C(=O)Nc3ccccc3CC(=O)O)c3cccn3n2)cc1` [Compound 82g, 2-(2-(2-(4-(aminomethyl)phenyl)pyrrolo[2,1-f][1,2,4]triazine-4-carboxamido)phenyl)acetic acid], the IC50 was over 10 µM.

The values are drawn from patent US20250275991A1, “ORAL COMPLEMENT FACTOR D INHIBITORS” (BioCryst Pharmaceuticals, Inc, priority 2019, published 2025).
